Earlier results in patent US20120010179A1, “Methods of using a thiazole derivative” (priority 2006, published 2012).

Test system: lipopolysaccharide (LPS)-induced cytokine production (TNF-α, IL-1β, IL-6)
Conditions: tetomilast pretreatment; human whole blood from normal volunteers in vitro; cited from earlier work

CCOc1ccc(-c2nc(-c3cccc(C(=O)O)n3)cs2)cc1OCC [Tetomilast, 2-(3,4-diethoxyphenyl)-4-(2-carboxy-6-pyridyl)thiazole]
LPS-induced cytokine production (TNF-α, IL-1β, IL-6): dose-related suppression
